According to patent US8030478B2, “Method for nucleic acid replication and novel artificial base pairs” (priority 2005, dated 2011):
Read-outs that look alike come from different tables or passages of the source.

Biological target: T7 RNA polymerase (Escherichia phage T7, UniProt P00573)
Details: for Composition of nucleotide incorporated as 5′ neighbor of U: Ap / Composition of nucleotide incorporated as 5′ neighbor of U: Gp / Composition of nucleotide incorporated as 5′ neighbor of U: Np (Dsp) / Composition of nucleotide incorporated as 5′ neighbor of U: Up / Composition of nucleotide incorporated as 5′ neighbor of U: Cp: [α-32P]UTP; for Composition of nucleotide incorporated as 5′ neighbor of A: Up / Composition of nucleotide incorporated as 5′ neighbor of A: Np (Dsp) / Composition of nucleotide incorporated as 5′ neighbor of A: Ap / Composition of nucleotide incorporated as 5′ neighbor of A: Gp / Composition of nucleotide incorporated as 5′ neighbor of A: Cp: [α-32P]ATP; for Composition of nucleotide incorporated as 5′ neighbor of A: Cp: theoretical [7]
[1] = Entry 14, template temp35Pa-4, natural NTP 1 mM, Ds 1 mM, theoretical [0]
[2] = Entry 14, template temp35Pa-4, natural NTP 1 mM, Ds 1 mM, theoretical [1]
[3] = Entry 15, template temp35Pa-4, natural NTP 1 mM, Ds 3 mM, theoretical [0]
[4] = Entry 15, template temp35Pa-4, natural NTP 1 mM, Ds 3 mM, theoretical [1]
[5] = Entry 16, template temp35Pa′-4, natural NTP 1 mM, Ds 1 mM, theoretical [0]
[6] = Entry 16, template temp35Pa′-4, natural NTP 1 mM, Ds 1 mM, theoretical [1]
[7] = Entry 17, template temp35Pa′-4, natural NTP 1 mM, Ds 3 mM, theoretical [0]
[8] = Entry 17, template temp35Pa′-4, natural NTP 1 mM, Ds 3 mM, theoretical [1]
[9] = Entry 18, template temp35C-4, natural NTP 1 mM, Ds 1 mM, theoretical [0]
[10] = Entry 18, template temp35C-4, natural NTP 1 mM, Ds 1 mM, theoretical [1]
[11] = Entry 19, template temp35C-4, natural NTP 1 mM, Ds 3 mM, theoretical [0]
[12] = Entry 19, template temp35C-4, natural NTP 1 mM, Ds 3 mM, theoretical [1]
[13] = Entry 20, template temp35T-4, natural NTP 1 mM, Ds 1 mM, theoretical [0]
[14] = Entry 20, template temp35T-4, natural NTP 1 mM, Ds 1 mM, theoretical [1]
[15] = Entry 21, template temp35T-4, natural NTP 1 mM, Ds 3 mM, theoretical [0]
[16] = Entry 21, template temp35T-4, natural NTP 1 mM, Ds 3 mM, theoretical [1]
[17] = Entry 29, template DNA14, natural NTP 2 mM, Ds 2 mM, theoretical [6]
[18] = Entry 31, template DNAcont4, natural NTP 2 mM, Ds 2 mM, theoretical [6]
[19] = Entry 36, template DNA13, natural NTP 2 mM, Ds 2 mM, theoretical [4]
[20] = Entry 37, template DNA14, natural NTP 2 mM, Ds 2 mM, theoretical [4]
[21] = Entry 39, template DNAcont4, natural NTP 2 mM, Ds 2 mM, theoretical [4]

Sequence of T7 RNA polymerase (P00573 whole entry): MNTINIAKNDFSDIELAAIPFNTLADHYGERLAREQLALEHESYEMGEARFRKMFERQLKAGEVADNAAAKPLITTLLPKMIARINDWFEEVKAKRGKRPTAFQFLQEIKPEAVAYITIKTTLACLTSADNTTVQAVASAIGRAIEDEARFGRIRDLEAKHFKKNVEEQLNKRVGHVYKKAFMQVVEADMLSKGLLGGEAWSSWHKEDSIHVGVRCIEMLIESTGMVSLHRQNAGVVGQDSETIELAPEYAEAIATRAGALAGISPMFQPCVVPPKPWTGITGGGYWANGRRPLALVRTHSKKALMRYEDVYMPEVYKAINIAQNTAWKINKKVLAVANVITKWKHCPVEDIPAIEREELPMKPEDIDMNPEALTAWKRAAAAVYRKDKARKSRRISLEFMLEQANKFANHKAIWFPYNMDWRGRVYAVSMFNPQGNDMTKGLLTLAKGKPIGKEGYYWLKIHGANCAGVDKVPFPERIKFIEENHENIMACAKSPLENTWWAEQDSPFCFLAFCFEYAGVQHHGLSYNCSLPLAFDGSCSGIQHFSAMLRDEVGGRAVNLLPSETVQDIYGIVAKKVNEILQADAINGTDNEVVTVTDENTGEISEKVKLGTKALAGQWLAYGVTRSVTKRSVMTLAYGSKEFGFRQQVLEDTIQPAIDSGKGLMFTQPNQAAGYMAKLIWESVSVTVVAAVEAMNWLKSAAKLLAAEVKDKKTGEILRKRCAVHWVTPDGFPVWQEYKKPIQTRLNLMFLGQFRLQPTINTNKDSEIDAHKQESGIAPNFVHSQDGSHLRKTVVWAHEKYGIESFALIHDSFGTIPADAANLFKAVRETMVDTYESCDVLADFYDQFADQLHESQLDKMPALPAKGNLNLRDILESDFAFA
Protocol: Transcription (20 μl) was accomplished in 40 mM Tris-HCl buffer (pH 8.0) containing 24 mM MgCl2, 2 mM spermidine, 5 mM DTT, 0.01% Triton X-100, 1-3 mM each natural NTP, 0-3 mM Pa′TP, 0-3 mM DsTP, 10 mM GMP, 2 μM template DNA (for 17-mer transcript synthesis) or 0.5 μM template DNA (for tRNA transcript synthesis), and 2.5 units/μl T7 RNA polymerase (TAKARA). […] For nucleotide composition analysis in transcripts (Non-patent Documents 17 and 33), the transcripts were internally labeled with 2 μCi [α-^32P]UTP or [α-^32P]ATP (Amersham). After the transcription, the products were digested with 0.75 units of RNase T2 at 37° C. for 2 hours in 10 μl of 15 mM sodium acetate buffer (pH 4.5). For 17-mer analysis, 0.05 A260 units of E. coli tRNA (Sigma) was added to the digestion reaction solution. The digestion products were analyzed by 2D-TLC (HPTLC plate, 100×100 mm, Merck). The developing solvents used for the first and second dimensions were isobutyric acid-ammonia-water (66:1:33 v/v/v) and isopropyl alcohol-HCl-water (70:15:15 v/v/v or 75:15:10 v/v/v for Pa′ transcripts), respectively. Spots of the labeled nucleotides on the TLC plate were analyzed with a bio-imaging analyzer.
The internally ^32P-labeled transcripts were digested with Rnase T2, and the resulting labeled nucleoside 3′-monophosphates were analyzed by 2D thin-layer chromatography (2D-TLC).

O=P(O)(O)OP(=O)(O)OP(=O)(O)OC[C@H]1O[C@@H](n2cnc3c(-c4cccs4)ccnc32)[C@H](O)[C@@H]1O [DsTP, 7-(2-Thienyl)-3-(β-D-ribofuranosyl)-3H-imidazo[4,5-b]pyridine 5′-triphosphate]
Composition of nucleotide incorporated as 5′ neighbor of U: Ap [1]: 0.02 [0]
Composition of nucleotide incorporated as 5′ neighbor of U: Gp [1]: n.d. [0]
Composition of nucleotide incorporated as 5′ neighbor of U: Np (Dsp) [2]: 0.98 [1]
Composition of nucleotide incorporated as 5′ neighbor of U: Up [2]: 1.00 [1]
Composition of nucleotide incorporated as 5′ neighbor of U: Cp (Entry 14, template temp35Pa-4, natural NTP 1 mM, Ds 1 mM, theoretical [2]): 1.99 [2]
Composition of nucleotide incorporated as 5′ neighbor of U: Ap [3]: 0.01 [0]
Composition of nucleotide incorporated as 5′ neighbor of U: Gp [3]: n.d. [0]
Composition of nucleotide incorporated as 5′ neighbor of U: Np (Dsp) [4]: 0.99 [1]
Composition of nucleotide incorporated as 5′ neighbor of U: Up [4]: 1.01 [1]
Composition of nucleotide incorporated as 5′ neighbor of U: Cp (Entry 15, template temp35Pa-4, natural NTP 1 mM, Ds 3 mM, theoretical [2]): 1.99 [2]
Composition of nucleotide incorporated as 5′ neighbor of U: Ap [5]: 0.05 [0]
Composition of nucleotide incorporated as 5′ neighbor of U: Gp [5]: n.d. [0]
Composition of nucleotide incorporated as 5′ neighbor of U: Np (Dsp) [6]: 0.94 [1]
Composition of nucleotide incorporated as 5′ neighbor of U: Up [6]: 1.02 [1]
Composition of nucleotide incorporated as 5′ neighbor of U: Cp (Entry 16, template temp35Pa′-4, natural NTP 1 mM, Ds 1 mM, theoretical [2]): 1.98 [2]
Composition of nucleotide incorporated as 5′ neighbor of U: Ap [7]: 0.02 [0]
Composition of nucleotide incorporated as 5′ neighbor of U: Gp [7]: n.d. [0]
Composition of nucleotide incorporated as 5′ neighbor of U: Np (Dsp) [8]: 0.96 [1]
Composition of nucleotide incorporated as 5′ neighbor of U: Up [8]: 1.02 [1]
Composition of nucleotide incorporated as 5′ neighbor of U: Cp (Entry 17, template temp35Pa′-4, natural NTP 1 mM, Ds 3 mM, theoretical [2]): 1.99 [2]
Composition of nucleotide incorporated as 5′ neighbor of U: Ap [9]: 0.01 [0]
Composition of nucleotide incorporated as 5′ neighbor of U: Np (Dsp) [9]: n.d. [0]
Composition of nucleotide incorporated as 5′ neighbor of U: Gp [10]: 0.98 [1]
Composition of nucleotide incorporated as 5′ neighbor of U: Up [10]: 1.00 [1]
Composition of nucleotide incorporated as 5′ neighbor of U: Cp (Entry 18, template temp35C-4, natural NTP 1 mM, Ds 1 mM, theoretical [2]): 2.01 [2]
Composition of nucleotide incorporated as 5′ neighbor of U: Ap [11]: 0.01 [0]
Composition of nucleotide incorporated as 5′ neighbor of U: Np (Dsp) [11]: n.d. [0]
Composition of nucleotide incorporated as 5′ neighbor of U: Gp [12]: 0.97 [1]
Composition of nucleotide incorporated as 5′ neighbor of U: Up [12]: 1.00 [1]
Composition of nucleotide incorporated as 5′ neighbor of U: Cp (Entry 19, template temp35C-4, natural NTP 1 mM, Ds 3 mM, theoretical [2]): 2.03 [2]
Composition of nucleotide incorporated as 5′ neighbor of U: Gp [13]: n.d. [0]
Composition of nucleotide incorporated as 5′ neighbor of U: Np (Dsp) [13]: n.d. [0]
Composition of nucleotide incorporated as 5′ neighbor of U: Ap [14]: 0.99 [1]
Composition of nucleotide incorporated as 5′ neighbor of U: Up [14]: 1.02 [1]
Composition of nucleotide incorporated as 5′ neighbor of U: Cp (Entry 20, template temp35T-4, natural NTP 1 mM, Ds 1 mM, theoretical [2]): 1.99 [2]
Composition of nucleotide incorporated as 5′ neighbor of U: Gp [15]: n.d. [0]
Composition of nucleotide incorporated as 5′ neighbor of U: Np (Dsp) [15]: n.d. [0]
Composition of nucleotide incorporated as 5′ neighbor of U: Ap [16]: 0.99 [1]
Composition of nucleotide incorporated as 5′ neighbor of U: Up [16]: 1.01 [1]
Composition of nucleotide incorporated as 5′ neighbor of U: Cp (Entry 21, template temp35T-4, natural NTP 1 mM, Ds 3 mM, theoretical [2]): 2.00 [2]
Composition of nucleotide incorporated as 5′ neighbor of A: Up (Entry 28, template DNA13, natural NTP 2 mM, Ds 2 mM, theoretical [0]): 0.05 [0]
Composition of nucleotide incorporated as 5′ neighbor of A: Np (Dsp) (Entry 28, template DNA13, natural NTP 2 mM, Ds 2 mM, theoretical [1]): 0.96 [1]
Composition of nucleotide incorporated as 5′ neighbor of A: Ap (Entry 28, template DNA13, natural NTP 2 mM, Ds 2 mM, theoretical [5]): 5.04 [5]
Composition of nucleotide incorporated as 5′ neighbor of A: Gp (Entry 28, template DNA13, natural NTP 2 mM, Ds 2 mM, theoretical [6]): 6.02 [6]
Composition of nucleotide incorporated as 5′ neighbor of A: Cp (Entry 28, template DNA13, natural NTP 2 mM, Ds 2 mM): 6.93 [7]
Composition of nucleotide incorporated as 5′ neighbor of A: Up (Entry 29, template DNA14, natural NTP 2 mM, Ds 2 mM, theoretical [0]): 0.03 [0]
Composition of nucleotide incorporated as 5′ neighbor of A: Np (Dsp) (Entry 29, template DNA14, natural NTP 2 mM, Ds 2 mM, theoretical [1]): 0.96 [1]
Composition of nucleotide incorporated as 5′ neighbor of A: Ap [17]: 6.13 [6]
Composition of nucleotide incorporated as 5′ neighbor of A: Gp [17]: 5.96 [6]
Composition of nucleotide incorporated as 5′ neighbor of A: Cp (Entry 29, template DNA14, natural NTP 2 mM, Ds 2 mM): 6.93 [7]
Composition of nucleotide incorporated as 5′ neighbor of A: Np (Dsp) (Entry 31, template DNAcont4, natural NTP 2 mM, Ds 2 mM, theoretical [0]): 0.02 [0]
Composition of nucleotide incorporated as 5′ neighbor of A: Up (Entry 31, template DNAcont4, natural NTP 2 mM, Ds 2 mM, theoretical [1]): 1.09 [1]
Composition of nucleotide incorporated as 5′ neighbor of A: Ap [18]: 6.10 [6]
Composition of nucleotide incorporated as 5′ neighbor of A: Gp [18]: 5.98 [6]
Composition of nucleotide incorporated as 5′ neighbor of A: Cp (Entry 31, template DNAcont4, natural NTP 2 mM, Ds 2 mM): 6.83 [7]
Composition of nucleotide incorporated as 5′ neighbor of U: Np (Dsp) (Entry 36, template DNA13, natural NTP 2 mM, Ds 2 mM, theoretical [0]): n.d. [0]
Composition of nucleotide incorporated as 5′ neighbor of U: Ap (Entry 36, template DNA13, natural NTP 2 mM, Ds 2 mM, theoretical [2]): 2.00 [2]
Composition of nucleotide incorporated as 5′ neighbor of U: Gp [19]: 3.97 [4]
Composition of nucleotide incorporated as 5′ neighbor of U: Up [19]: 4.03 [4]
Composition of nucleotide incorporated as 5′ neighbor of U: Cp (Entry 36, template DNA13, natural NTP 2 mM, Ds 2 mM, theoretical [5]): 4.99 [5]
Composition of nucleotide incorporated as 5′ neighbor of U: Np (Dsp) (Entry 37, template DNA14, natural NTP 2 mM, Ds 2 mM, theoretical [0]): 0.01 [0]
Composition of nucleotide incorporated as 5′ neighbor of U: Ap (Entry 37, template DNA14, natural NTP 2 mM, Ds 2 mM, theoretical [2]): 1.99 [2]
Composition of nucleotide incorporated as 5′ neighbor of U: Cp [20]: 4.02 [4]
Composition of nucleotide incorporated as 5′ neighbor of U: Gp [20]: 3.91 [4]
Composition of nucleotide incorporated as 5′ neighbor of U: Up [20]: 4.08 [4]
Composition of nucleotide incorporated as 5′ neighbor of U: Np (Dsp) (Entry 39, template DNAcont4, natural NTP 2 mM, Ds 2 mM, theoretical [0]): 0.01 [0]
Composition of nucleotide incorporated as 5′ neighbor of U: Ap (Entry 39, template DNAcont4, natural NTP 2 mM, Ds 2 mM, theoretical [2]): 1.99 [2]
Composition of nucleotide incorporated as 5′ neighbor of U: Gp [21]: 3.95 [4]
Composition of nucleotide incorporated as 5′ neighbor of U: Up [21]: 4.05 [4]
Composition of nucleotide incorporated as 5′ neighbor of U: Cp (Entry 39, template DNAcont4, natural NTP 2 mM, Ds 2 mM, theoretical [5]): 5.01 [5]
